# Assay results as given in ChEMBL document CHEMBL2406918, “Controlling persister cells of Pseudomonas aeruginosa PDO300 by (Z)-4-bromo-5-(bromomethylene)-3-methylfuran-2(5H)-one” (2013).
# Calls of active or inactive are those of the source. The calls are words filed in the database; no cut-off is given here.
# Legend:
# Escherichia coli = experiment: Antibacterial activity against Escherichia coli RP437 assessed as effect on persister cells at pH > 7; type: functional, organism-based
# Pseudomonas aeruginosa [1] = experiment: Antibacterial activity against Pseudomonas aeruginosa PDO300 assessed as viable persister cells at 30 ug/ml after 24 hrs by drop plate method; type: functional, organism-based
# Pseudomonas aeruginosa [2] = experiment: Antibacterial activity against Pseudomonas aeruginosa PDO300 assessed as reduction in viable biofilm cells after 24 hrs by drop plate method; type: functional, organism-based
# Pseudomonas aeruginosa [3] = experiment: Antibacterial activity against Pseudomonas aeruginosa PDO300 assessed as cell death in planktonic phase at 30 ug/ml after 24 hrs by drop plate method; type: functional, organism-based
# Pseudomonas aeruginosa [4] = experiment: Antibacterial activity against Pseudomonas aeruginosa PDO300 assessed as reduction in viable persister cells in planktonic population of biofilm after 18 hrs by drop plate method; type: functional, organism-based
# Pseudomonas aeruginosa [5] = experiment: Antibacterial activity against Pseudomonas aeruginosa PDO300 assessed as reduction in persister cells in biofilm after 18 hrs by drop plate method; type: functional, organism-based
# Pseudomonas aeruginosa [6] = experiment: Antibacterial activity against Pseudomonas aeruginosa PDO300 assessed as reduction in viable persister cells in biofilm at 20 to 60 ug/ml after 18 hrs by drop plate method relative to control; type: functional
# Pseudomonas aeruginosa [7] = experiment: Antibacterial activity against Pseudomonas aeruginosa PDO300 assessed as cell viability up to 30 ug/ml after 5 hrs by drop plate method; type: functional, organism-based
# Pseudomonas aeruginosa [8] = experiment: Antibacterial activity against Pseudomonas aeruginosa PDO300 assessed as reduction in planktonic cells in biofilm after 18 hrs by drop plate method; type: functional, organism-based
# Pseudomonas aeruginosa [9] = experiment: Antibacterial activity against Pseudomonas aeruginosa PDO300 assessed as reduction in viable persister cells in planktonic population of biofilm at 60 ug/ml after 18 hrs by drop plate method relative to control; type: functional
# Pseudomonas aeruginosa [10] = experiment: Antibacterial activity against Pseudomonas aeruginosa PDO300 assessed as reduction in biofilm formation after 18 hrs by drop plate method; type: functional, organism-based
# Pseudomonas aeruginosa [11] = experiment: Bactericidal activity against Pseudomonas aeruginosa PDO300 persister cells at 5 ug/ml after 2 hrs by drop plate method; type: functional
# Pseudomonas aeruginosa [12] = experiment: Bactericidal activity against Pseudomonas aeruginosa PDO300 persister cells at 5 to 50 ug/ml after 2 hrs by drop plate method; type: functional, organism-based
# Pseudomonas aeruginosa [13] = experiment: Bactericidal activity against Pseudomonas aeruginosa PDO300 persister cells at 50 ug/ml after 2 hrs by drop plate method; type: functional, organism-based
# Pseudomonas aeruginosa [14] = experiment: Antibacterial activity against Pseudomonas aeruginosa PDO300 assessed as reduction in biofilm formation at 60 ug/ml after 18 hrs by drop plate method relative to control; type: functional; parameters: scale not given: the % may be the effect or the level left
# Pseudomonas aeruginosa [15] = experiment: Antibacterial activity against Pseudomonas aeruginosa PDO300 assessed as reduction in persistence after 12 hrs by drop plate method; type: functional, organism-based
# Pseudomonas aeruginosa [16] = experiment: Antibacterial activity against Pseudomonas aeruginosa PDO300 assessed as viable biofilm cells at 30 ug/ml after 24 hrs by drop plate method (reference value: 0.0005 +/- 0.0008%); type: functional
# Pseudomonas aeruginosa [17] = experiment: Antibacterial activity against Pseudomonas aeruginosa PDO300 assessed as reduction in persistence at 30 ug/ml after 12 hrs by drop plate method relative to control; type: functional; parameters: scale not given: the % may be the effect or the level left
# Pseudomonas aeruginosa [18] = experiment: Antibacterial activity against Pseudomonas aeruginosa PDO300 assessed as reduction in persistence up to 30 ug/ml after 5 hrs by drop plate method; type: functional, organism-based
# Pseudomonas aeruginosa [19] = experiment: Antibacterial activity against Pseudomonas aeruginosa PDO300 assessed as effect on total number of suspended planktonic cells at 60 ug/ml after 18 hrs by drop plate method relative to control; type: functional, organism-based
# Pseudomonas aeruginosa [20] = experiment: Antibacterial activity against Pseudomonas aeruginosa PDO300 assessed as persister cell death in viable biofilm at 5 to 30 ug/mL after 24 hrs by drop plate method; type: functional, organism-based
# Pseudomonas aeruginosa [21] = experiment: Antibacterial activity against Pseudomonas aeruginosa PDO300 assessed as growth inhibition at 5 to 30 ug/mL after 12 hrs; type: functional, organism-based
compound,measurement,setting,value
CC1=C(Br)/C(=C/Br)OC1=O,Activity,Escherichia coli,Active
same,Activity,Pseudomonas aeruginosa [1],Active
same,Activity,Pseudomonas aeruginosa [2],Dose-dependent effect
same,Activity,Pseudomonas aeruginosa [3],Active
same,Activity,Pseudomonas aeruginosa [4],Dose-dependent effect
same,Activity,Pseudomonas aeruginosa [5],Dose-dependent effect
same,Activity,Pseudomonas aeruginosa [6],98.3%
same,Activity,Pseudomonas aeruginosa [7],inactive
same,Activity,Pseudomonas aeruginosa [8],inactive
same,Activity,Pseudomonas aeruginosa [9],96.5%
same,Activity,Pseudomonas aeruginosa [10],Dose-dependent effect
same,Activity,Pseudomonas aeruginosa [11],80.9%
same,Activity,Pseudomonas aeruginosa [12],Active
same,Activity,Pseudomonas aeruginosa [13],Active
same,Activity,Pseudomonas aeruginosa [14],91.6%
same,Activity,Pseudomonas aeruginosa [15],Dose-dependent effect
same,Activity,Pseudomonas aeruginosa [16],0.01%
same,Activity,Pseudomonas aeruginosa [17],88.5%
same,Activity,Pseudomonas aeruginosa [18],inactive
same,Activity,Pseudomonas aeruginosa [19],inactive
same,Activity,Pseudomonas aeruginosa [20],Active
same,growth inhibition (GI),Pseudomonas aeruginosa [21],inactive
